Assay results from US4681882A, “4-alkoxy-pyrido[2,3-d]pyrimidine derivatives” (Godecke Aktiengesellschaft, priority 1984, dated 1987).

Experiments:
[1] = tested on: arteria basilaris vessel rings; test: Inhibition of K^+ depolarization contraction of isolated vessel rings (a. basilaris) in the organ bath; format: cell-based; settings: rabbit a. basilaris rings, mean diameter 0.5-1.0 mm, potassium depolarization in Tyrode's solution, read-out: Concentration (IC50) effecting a semimaximal inhibition of the K^+ -depolarization contraction of vessel rings, a. basilaris
Description: (§1) Of rabbits (vessel ring segments of arteria basilaris and a. coronaria are mounted in an organ bath in a way to allow the measurement of isometric contractions. Contractile activity is elicited by a potassium depolarization in Tyrode's solution. This experimental set-up is a well-known standard model for the identification of substances blocking the calcium channels opened during the potassium depolarization (Fleckenstein, Calcium Antagonism in Heart and Smooth Muscle, J. Wiley & Sons, 1983).
(§2) Concentrations (IC50, mol/l) of compounds effecting a semimaxi-
(§3) mal inhibition of the K^+ -depolarization contraction of vessel
(§4) in the organ bath. A. bas. = arteria basilaris, a cor. = arteria
(§5) coronaria of the rabbit; mean diameter 0.5-1.0 mm.

[2] = tested on: arteria coronaria vessel rings; test: Inhibition of K^+ depolarization contraction of isolated vessel rings (a. coronaria) in the organ bath; format: cell-based; settings: rabbit a. coronaria rings, mean diameter 0.5-1.0 mm, potassium depolarization in Tyrode's solution, read-out: Concentration (IC50) effecting a semimaximal inhibition of the K^+ -depolarization contraction of vessel rings, a. coronaria
Description: as §1, §2, §3, §4, §5

SMILES: COCCOC(=O)C1=C(C)Nc2ncnc(OC(C)C)c2C1c1cccc([N+](=O)[O-])c1 (racemic) [Example 1b, (±)-5,8-Dihydro-4-isopropoxy-7-methyl-5-(3-nitrophenyl)pyrido[2,3-d]pyrimidine-6-carboxylic acid(2-methoxy)ethyl ester]
- IC50 [1]: 39 nM
- IC50 [2]: 34 nM

SMILES: COC(=O)C1=C(C)Nc2ncnc(OC(C)C)c2C1c1ccccc1C(F)(F)F (racemic) [Example 1c, (±)-5,8-Dihydro-4-isopropoxy-7-methyl-5-(2-trifluromethylphenyl)pyrido[2,3-d]pyrimidine-6-carboxylic acid methyl ester]
- IC50 [1]: 40 nM
- IC50 [2]: 45 nM

SMILES: CC1=C(C(=O)OC(C)C)C(c2cccc([N+](=O)[O-])c2)c2c(ncnc2OC(C)C)N1 (racemic) [Example 1d, (±)-5,8)Dihydro-4-isopropoxy-7-methyl-5-(3-nitrophenyl)pyrido[2,3-d]pyrimidine-6-carboxylic acid isopropyl ester]
- IC50 [1]: 33 nM
- IC50 [2]: 160 nM

SMILES: CCOC(=O)C1=C(N)Nc2ncnc(OC(C)C)c2C1c1ccccc1OC (racemic) [Example 1e, (±)-7-Amino-5,8-dihydro-4-isopropoxy-5-(2-methoxyphenyl)pyrido[2,3-d]pyrimidine-6-carboxylic acid ethyl ester]
- IC50 [1]: 2800 nM
- IC50 [2]: 73 nM

SMILES: CCOC(=O)C1=C(C)Nc2ncnc(OC(C)C)c2C1c1ccccc1C(F)(F)F (racemic) [Example 1f, (±)-5,8-Dihydro-4-isopropoxy-7-methyl-5-(2-trifluoromethylphenyl)pyrido[2,3-d]pyrimidine-6-carboxylic acid ethyl ester]
- IC50 [1]: 38 nM
- IC50 [2]: 34 nM

SMILES: COC(=O)C1=C(C)Nc2ncnc(OC(C)C)c2C1c1cccc([N+](=O)[O-])c1 (racemic) [Example 1g, (±)-5,8-Dihydro-4-isopropoxy-7-methyl-5-(3-nitrophenyl)pyrido[2,3-d]pyrimidine-6-carboxylic acid methyl ester]
- IC50 [1]: 28 nM
- IC50 [2]: 230 nM

SMILES: COc1ncnc2c1C(c1cccc([N+](=O)[O-])c1)C(C(=O)OC(C)C)=C(C)N2 (racemic) [Example 2, (±)-5,8-Dihydro-4-methoxy-7-methyl-5-(3-nitrophenyl)pyrido[2,3-d]pyrimidine-6-carboxylic acid isopropyl ester]
- IC50 [1]: 2.5 nM
- IC50 [2]: 140 nM
